Read-outs that look alike come from different tables or passages of the source.
Assays:
[1] = system: ERK, AKT, p38 MAPK, STAT1 and NF-κB phosphorylation in A549 cells; type: cell-based, human
[2] = system: SOCS1; type: cell-based, human; conditions: 15 μg/ml, 1 h
[3] = system: RIG1; type: cell-based, human
[4] = system: SOCS1, SOCS3, SOCS4 expression in A549 cells; assay: SOCS expression in A549 cells incubated with rhGal3 with or without TDG (quantitative realtime PCR); type: cell-based, human
Description: A549 cells were grown in 12-well plates and incubated with 0˜30 μg/ml of rhGal3 for 1 hour. After washing, RNA was extracted from the cells and subjected to reverse-transcription, followed by quantitative realtime PCR with designed primers for SOCS1, SOCS3, SOCS4, and beta-actin. Ct values were calculated and the relative expression level was calculated as 2^(Ct actin−Ct target).

[5] = system: A549 cells; type: cell-based, human; conditions: for extracellular cytokine levels: A549 cells, treatment alone vs untreated cells, FIG. 7
[6] = molecular target: T1, recombinant human Gal3 (Homo sapiens, UniProt P17931); assay: Inhibition of hGal3 binding to asialofetuin (microtiter plate); conditions: biotinylated rhGal3 5 ug/ml pre-mixed with inhibitor; TDG 5 mM; Lac 50 mM; FIG. 12
T1 construct: made in house; host or cells: Escherichia coli BL21 (DE3)
Description: Ninety-six well microtiter plates were coated with 1 ug/well of asialofetuin (10 μg/ml in PBS, 100 ul each well) for 3 h at 37° C., washed and blocked with 3% BSA in PBS overnight at 4° C. […] The reaction was stopped with 1 M HCl and the optical density (OD) at 450 nm from each well was measured by SpectraMax 340 plate reader (Molecular Device).

[7] = molecular target: T2, rhGal3 binding onto A549 cells (Homo sapiens, UniProt P17931); assay: Flow cytometry of rhGal3 binding to A549 cells and its inhibition; type: cell-based
T2 construct: made in house; host or cells: Escherichia coli BL21 (DE3)

[8] = A549 cells, treatment alone, vs control
[9] = NeuK-treated A549 cells, 15 μg/ml
[10] = A549 cells pre-exposed to NeuK, 15 μg/ml
[11] = hGal3 10 μg/ml pre-mixed with 0~10 mM disaccharide

T2 sequence (P17931 whole entry): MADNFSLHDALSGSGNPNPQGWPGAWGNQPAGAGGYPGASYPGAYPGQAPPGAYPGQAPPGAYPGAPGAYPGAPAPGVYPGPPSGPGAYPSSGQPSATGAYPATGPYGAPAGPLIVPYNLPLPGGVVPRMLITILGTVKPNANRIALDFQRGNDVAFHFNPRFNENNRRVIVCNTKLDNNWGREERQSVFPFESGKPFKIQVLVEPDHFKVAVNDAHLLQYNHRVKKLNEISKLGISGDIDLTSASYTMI
T1 sequence (P17931 whole entry): as above

Molecule: rhGal3: recombinant human galectin-3
- phosphorylation level of AKT [1, 8]: up to 4 fold
- phosphorylation level of ERK [1, 8]: increased
- phosphorylation level of STAT1 [1, 8]: increased
- phosphorylation level of p38 [1, 8]: remained unchanged
- phosphorylation of p38, decrease ([1]; NeuK-treated A549 cells compared with effect on untreated cells): more than 50%
- phosphorylation level of AKT [1, 9]: 1.5 fold
- phosphorylation level of ERK [1, 9]: 3 fold
- SOCS1 expression, downregulated ([2]; untreated or NeuK-treated A549 cells): 60-70 % of the control levels
- RIG1 expression, downregulated to ([3]; NeuK treatment followed by exposure, 15 μg/ml): about 20 % of the unexposed controls
- RIG1 expression, increase ([3]; treatment alone, A549 cells): about 4 fold
- SOCS expression (SOCS1, SOCS3, SOCS4) ([4]; 0~30 μg/ml rhGal3, 1 hour, FIG. 16): suppress SOCS expression in dose-dependent manner
- IL-1β, IL-10 and IL-12 levels in culture supernatant [5, 10]: had no effect
- IL-6 level in culture supernatant, increase [5, 10]: 8 fold
- IL-8 level in culture supernatant, increase [5, 10]: 15 fold
- IL-15 level in culture supernatant, increase [5, 10]: 20 fold
- extracellular cytokine levels [5]: increased levels of IFNγ, TNFα, IL-10, IL-6, and IL-8

Molecule: OC[C@H]1O[C@@H](S[C@@H]2O[C@H](CO)[C@H](O)[C@H](O)[C@H]2O)[C@H](O)[C@@H](O)[C@H]1O [TDG, thiodigalactoside]
- inhibition of rhGal3 binding to asialofetuin (OD 450 nm) [6]: partially inhibit
- inhibition of hGal3 binding onto A549 cells (MFI) [7, 11]: inhibit the binding
- inhibition of hGal3 binding onto A549 cells (MFI) ([7]; hGal3 pre-mixed with Lac 50 mM, TDG 50 mM or 10 mM): inhibit binding well
- SOCS expression (SOCS1, SOCS3, SOCS4) ([4]; 30 μg rhGal3 pre-mixed with TDG 50 mM, one hour, FIG. 17): offset all the galectin's effect in suppressing SOCS expression
- SOCS expression ([4]; disaccharide (TDG 50 mM) alone, one hour): some positive effect in SOCS expression

Molecule: CC(=O)N[C@H]1C(O)O[C@H](CO)[C@H](O)[C@@H]1O[C@@H]1O[C@H](CO)[C@H](O)[C@H](O)[C@H]1O (stereo partly shown) [TF disaccharides, Galβ1,3GalNAc]
- inhibition of hGal3 binding onto A549 cells (MFI) [7, 11]: inhibit the binding

Molecule: rhGal1: recombinant human galectin-1
- phosphorylation level of ERK [1, 9]: increased
- phosphorylation level of STAT1 [1, 9]: increased
- phosphorylation level of p38 [1, 9]: remained at the level of the NeuK-treated A549 control
- phosphorylation level of AKT, decreased to ([1]; untreated A549 cells, 15 μg/ml): 50 % of the control level
- SOCS1 expression ([2]; A549 cells pre-treated with NeuK): returned to the control levels
- SOCS1 expression, decrease ([2]; untreated A549 cells): 20-30%
- RIG1 expression, increase ([3]; NeuK-pretreated A549 cells, 15 μg/ml): about 12 fold
- RIG1 expression, decreased to ([3]; exposure alone, A549 cells, 15 μg/ml): about 50 % of the unexposed control
- IL-6 level in culture supernatant, increase [5, 10]: 4 fold
- IL-8 level in culture supernatant, increase [5, 10]: 5 fold
- IL-15 level in culture supernatant, increase [5, 10]: 25 fold
- extracellular cytokine levels [5]: the levels of IFNγ, IL-6, IL-8, and IL-10 increased

From patent US10905702B2 (priority 2016, dated 2021)
